Tested on: Sphaerotheca fuliginea
Experiment: In vivo test on Sphaerotheca fuliginea (powdery mildew)
Settings: gherkin plants, preventive spray 24 h before contamination, dose 600 g/ha, grading 13 days after contamination vs control plants
Experimental: The active ingredients tested are prepared by homogenization in a mixture of DMSO (dimethylsulfoxide)/acetone/tween/water. This suspension is then diluted with water to obtain the desired active material concentration.
Gherkin plants (Vert petit de Paris variety) in starter cups, sown on a 50/50 peat soil-pozzolana substrate and grown at 20° C./23° C., are treated at cotyledons stage by spraying with the aqueous suspension described above. Plants, used as controls, are treated with an aqueous solution not containing the active material.
After 24 hours, the plants are contaminated by spraying them with an aqueous suspension of Sphaerotheca fuliginea spores (100 000 spores per ml). The spores are collected from a contaminated plants. The contaminated gerkhin plants are incubated at about 20° C./25° C. and at 60/70% relative humidity.
Grading (% of efficacy) is carried out 13 days after the contamination, in comparison with the control plants.

## Cn1cc(C(=O)N[C@@H]2CCCC[C@@H]2c2ncc(Cl)cc2Cl)c(C(F)F)n1 (relative stereo) [Compound A-2, N-{2-[3,5-dichloro-2-pyridinyl]cis-cyclohexyl}1-methyl-3-(difluoromethyl)-1H-pyrazole-4-carboxamide]
  protection, % of efficacy (good, at least 70%): at least 70%
